Reference: patent US20230115640A1, “BLASTOCYST-LIKE STRUCTURES FROM EXTENDED PLURIPOTENT STEM CELLS” (Salk Institute for Biological Studies, priority 2019, published 2023)
Values joined by “and” are separate entries in the source; they are usually repeats but may differ in a detail not shown here. Equal entries are not always repeated.

Key:
[1] = system: mouse EPS cell aggregates; experiment: EPS-blastoid formation efficiency (blastocyst-like structures / total cell aggregates) in AggreWell 3D differentiation; type: cell-based; conditions: for Nblastoid/Ntotal (%), EPS-blastoid efficiency with treatment of Wnt antagonists: XAV939 5 μM or IWR-1-endo 10 μM added to medium at day 1, five days in blastoid induction medium; for EPS-blastoids formation (effect of WNT antagonists, in words): blastoid induction medium supplemented with antagonist
Description: To further improve the differentiation conditions, different growth factors, cytokines, and small molecules were included to identify condition(s) that enable the generation of structures mimicking blastocysts (EPS-blastoids), which contain a cavity and an inner cell mass. […] Using this optimized condition, EPS-blastoids consistently emerged three days after cell seeding (FIG. 1D). EPS-blastoids continued to enlarge, reaching an early blastocyst-like size at around day five or day six. To quantify the efficiency of EPS-blastoid formation, the total number of blastocyst-like structures were counted, with this count divided it by the total number of cell aggregates.
EPS colonies were dissociated into single cells by incubation with TrypLE (Thermo Fisher Scientific, 12604-013). Cell resuspension was transferred into a 0.1% gelatin-coated plate and incubated at 37° C. for 30 min to allow irradiated MEF cells attach to the plate. The supernatant containing the EPS cells were collected, filtered through a 40 μm cell strainer, and counted using the TC-10 counter (Bio-Rad, 1450001). AggreWell 400 (STEMCELL Technologies, 34415) was prepared following the manufacturer's instructions. EPS-blastoid basal medium is composed of 25% TSC basal medium (see above), 25% N2B27 basal medium (see above), and 50% KSOM (see above). In some experiments, M16 (Sigma-Aldrich, M7292) was used to replace KSOM. Approximately 6,000 cells (five cells per microwell for 1200 microwells) were resuspended in EPS-blastoid basal medium supplemented with 2 μM ROCK inhibitor Y-27632 (Reagents Direct, 53-B80-50), 12.5 ng/ml rhFGF4 (R&D, 235F4025), 0.5 μg/ml Heparin (Sigma-Aldrich, H3149), 3 μM GSK3 inhibitor CHIR99021 (Reagents Direct, 27-H76), 5 ng/ml BMP4 (Proteintech, HZ-1040), and 0.5 μM A83-01 (Axon Medchem, 1421) and seeded into one well of the 24-well AggreWell plate. The plate was centrifuged at 300g for one minute and transferred into an incubator. The day of cell seeding was counted as day 0 of the process. Medium was removed 24 h later (day 1) and replaced with fresh medium without Y-27632. Additional medium change is optional for the rest of the EPS-blastoid formation process. Starting from day 4, blastoids were manually picked up using a mouth pipette (Sigma-Aldrich, A5177) under a stereomicroscope for analysis or downstream experiments. For testing of the effect of antagonists or inhibitors on EPS-blastoid induction, chemicals were added to the medium at day 1. XAV939 (5 μM; Tocris, 3748) or IWR-1-endo (10 μM; STEMCELL Technologies, 72562) was used to inhibit Wnt signaling. Verteporfin (2 μM; Tocris, 5305) was used to inhibit YAP/TEAD interaction. For testing whether a single EPS cell forms into a blastoid, WT cells and Puromycin+/mcherry+ cells were mixed at a ratio of 10:1 and seeded onto Aggrewell 400 as stated above. Puromycin (0.25 μg/ml; InvivoGen, ant-pr-1) was added to the medium 24 hours later to eliminate helper cells gradually.

[2] = system: EPS cells; experiment: EPS cell survival on the day of seeding; type: cell-based, mouse; conditions: treated on the day of seeding
[3] = system: mouse ESCs; conditions: He et al., 2008; cited from earlier work

## verteporfin [VP]
[1]; verteporfin 2 μM added to medium at day 1, five days of blastoid induction, per experiment
  Nblastoid/Ntotal (%), EPS-blastoid efficiency with treatment of YAP-TEAD inhibitor: 1.43% and 0.36% and 0.87% and 1.05%

## Oc1nc(-c2ccc(C(F)(F)F)cc2)nc2c1CSCC2 [XAV939]
[1]; per experiment, listed as XVA939
  Nblastoid/Ntotal (%), EPS-blastoid efficiency with treatment of Wnt antagonists: 0.3% and 0.28% and 0.45% and 0.41% and 0.8%
[1]
  EPS-blastoids formation (effect of WNT antagonists, in words): significantly inhibited

## C[C@@H](N)[C@H]1CC[C@H](C(=O)Nc2ccncc2)CC1 [Y-27632]
[2]
  cell survival of EPS cells: enhanced cell survival

## O=C(Nc1cccc2cccnc12)c1ccc(N2C(=O)[C@@H]3[C@H](C2=O)[C@@H]2C=C[C@H]3C2)cc1 [IWR-1-endo]
[1]; per experiment
  Nblastoid/Ntotal (%), EPS-blastoid efficiency with treatment of Wnt antagonists: 0.28% and 0.41% and 1.23% and 0.81% and 0.42%
[1]
  EPS-blastoids formation (effect of WNT antagonists, in words): significantly inhibited

B1: Wnt-3a (protein, UniProt P56704 19-352, looked up)
Protein Wnt-3a: SYPIWWSLAVGPQYSSLGSQPILCASIPGLVPKQLRFCRNYVEIMPSVAEGIKIGIQECQHQFRGRRWNCTTVHDSLAIFGPVLDKATRESAFVHAIASAGVAFAVTRSCAEGTAAICGCSSRHQGSPGKGWKWGGCSEDIEFGGMVSREFADARENRPDARSAMNRHNNEAGRQAIASHMHLKCKCHGLSGSCEVKTCWWSQPDFRAIGDFLKDKYDSASEMVVEKHRESRGWVETLRPRYTYFKVPTERDLVYYEASPNFCEPNPETGSFGTRDRTCNVSSHGIDGCDLLCCGRGHNARAERRREKCRCVFHWCCYVSCQECTRVYDVHTCK
notes: Wnt agonist protein
[3]
  CDX2 (trophoblast transcription factor) expression in mouse ESCs: transiently up-regulates CDX2
